Measured values as given in PMC7377239, “Cardiovascular Effects of Polychlorinated Biphenyls and Their Major Metabolites” (Environmental Health Perspectives, 2020).

Legend:
[1] = tested on: iCell endothelial cells (human iPSC-derived ECs); assay: High-content imaging cytotoxicity in iCell endothelial cells, 24 h; assay type: cell-based; conditions: Homo sapiens, Endothelial cell, endothelial cells (endo), 24 hr
How it was run: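 Human iPSC-derived endothelial cells (passages 1–5) were grown to a fibronectin-coated monolayer, then exposed 24 h at 37 °C with 0.5% DMSO vehicle. Staining was Hoechst 33342, MitoTracker Orange and calcein AM, read by high-content imaging. Point of departure came from 4-parameter logistic fits, with a 1-SD vehicle cutoff and 100 µM as the top concentration.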

[2] = tested on: iCell endothelial cells (human iPSC-derived ECs); assay: Tube formation (tubulogenesis) assay in iCell endothelial cells, 18 h; assay type: cell-based; conditions: Homo sapiens, Endothelial cell, endothelial cells (endo), 18 hr
How it was run: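 iCell ECs (passages 1–5) seeded 7,500 cells/well on reduced-growth-factor Geltrex in starvation medium, exposed overnight at 37°C to compounds in triplicate concentration–response (0.5% DMSO vehicle). Calcein AM staining, 4× imaging, angiogenesis image analysis; readouts normalized to vehicle, four-parameter logistic fit, POD at 1 SD of vehicle; 100 μM assigned NOAEL if no response.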

`Oc1ccc(-c2ccc(Cl)cc2)cc1` [4'-OH-PCB 3] showed a minimal effective concentration ([1]; cyto, read-out: POD endo.cyto.24hr) of 41.1 µM, a minimal effective concentration ([1]; mito, read-out: POD endo.mito.24hr) of 41.1 µM and a minimal effective concentration ([1]; mitoint, read-out: POD endo.mitoint.24hr) of 100 µM. The minimal effective concentration ([1]; nma, read-out: POD endo.nma.24hr) was 100 µM, the minimal effective concentration ([1]; tc, read-out: POD endo.tc.24hr) was 52 µM and the minimal effective concentration ([2]; tube formation mtl, read-out: POD endo.mtl.18hr) was 1.21 µM. The minimal effective concentration ([2]; tube formation tlps, read-out: POD endo.tlps.18hr) was 0.19 µM, the minimal effective concentration ([2]; tube formation tta, read-out: POD endo.tta.18hr) was 1.16 µM and the minimal effective concentration ([2]; tube formation ttl, read-out: POD endo.ttl.18hr) was 1.12 µM.
